Kd and IC50 data for seven molecules are collected here from patent US20240190849A1, “AMINOPYRIMIDINE COMPOUNDS AND METHODS OF THEIR USE” (TYRA BIOSCIENCES, INC., priority 2021, published 2024).

Structures are written as SMILES.

The target of one assay is T1, FGFR3 (Homo sapiens, UniProt P22607).
T1 construct: made in house; host or cells: E. coli derived from BL21, infected with T7 phage
Put plainly: Kinase binding assay (kinase-tagged T7 phage, affinity beads, qPCR readout), FGFR3. The settings on record: FGFR binding data. The procedure, abridged: (§1)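 First, streptavidin beads were loaded with biotinylated ligand and blocked. Kinase, beads and compound were then shaken together for 1 hour at room temperature in SeaBlock/PBS/Tween/DTT buffer. Finally, eluted kinase was measured by qPCR and Kd fitted with Hill slope −1.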

Assay [1] deals with UM-UC-14 (Bladder Cancer), FGFR3(S249C). Kind of assay: Cancer cell viability assay (Cell Titer-Glo), UM-UC-14. The class given is cell-based. The settings on record: UMUC14, UM-UC-14 cells, 72 hours. An outline of the steps:
(§2)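 Cells seeded at 10,000/well in RPMI1640 with 10% FBS, then exposed 72 h at 37° C. to a 9-point 10-fold dilution series from 30 μM, in triplicate. Viability read as ATP luminescence (CellTiter-Glo 2.0) as percent of DMSO control; IC50 from 4-parameter sigmoidal fit.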
On the technique in general: ATP-based viability assays read luminescence as a measure of living cells.

Assay [2] relates to RT112/84 (Bladder Cancer), FGFR3-TACC3 fusion. Put plainly: Cancer cell viability assay (Cell Titer-Glo), RT112/84. The class given is cell-based. The conditions noted are these: Homo sapiens, RT112/84 cells, 72 hours. An outline of the steps: as §2
Assay [3] deals with KG-1 (Acute Myeloid Leukemia), FGFR1OP2-FGFR1 fusion. Kind of assay: Cancer cell viability assay (Cell Titer-Glo), KG-1. Type of assay: cell-based. The conditions noted are these: Homo sapiens, KG-1 cells, 72 hours. From the text:
RT112/84, UM-UC-14, SNU-16 and KG-1 Cancer Cell Line Cell Viability Assays
To detect the change of intracellular ATP by Cell Titer-Glo@ and to evaluate the inhibitory effect of the compounds on cancer cell lines by determining the in vitro IC50 value of the compounds.
Cell Titer-Glo@ 2.0 Luminescent cell viability assay reagent was purchased from Promega (Madison, WI). RT112/84, SNU-16, and KG-1 cell lines were purchased from American Type Culture Collection (Manassas, VA). UM-UC-14 cell line was purchased from Sigma (St. Louis, MO). RT112/84, UM-UC-14, SNU-16, and KG-1 cells were cultured in RPMI1640 media supplemented with 10% fetal bovine serum. Cultures were maintained at 37° C. in a humidified atmosphere of 5% CO2 and 95% air.
Cell Viability Assay Procedure: Cells were plated in 96-well clear bottom/white plates (Corning #3903) at 10,000 cells/well in 100 μl of media, incubated overnight. The next day, test compound DMSO stock solutions were made at 10 mM and 2 μM final concentration. Compounds were then added to cells in a 9-dose, […] dilution series starting at 30 μM with an HP 300e Digital Dispenser (each dose was applied in triplicate). DMSO was backfilled to each well up to 301 nL total volume of test compound+DMSO, and a total of 301 nL DMSO was added to a control/no test compound well in triplicate. The cells in cell culture plates were incubated with the compounds at 37° C. and 5% CO2 for 72 hours. Then 50 μl of Cell Titer Glo 2.0 reagent was added to each well of the cell culture plates. The contents were covered from light and mixed on an orbital shaker at room temperature for 10 min. Luminescence was recorded by a Synergy H1 Microplate Reader (Biotek, Winooski, VT). Cells were assessed as a percentage of DMSO only treated control cells. Curves were plotted and IC50 values were calculated using the GraphPad Prism 8 program based on a sigmoidal dose-response equation (4 parameter).

The target in the next assay is T2, FGFR1 (Homo sapiens, UniProt P11362).
T2 construct: made in house; host or cells: E. coli derived from BL21, infected with T7 phage
Kind of assay: Kinase binding assay (kinase-tagged T7 phage, affinity beads, qPCR readout), FGFR1. The conditions noted are these: FGFR binding data. An outline of the steps: as §1
In general terms: Real-time PCR tracks product formation cycle by cycle.

In the next assay the target is T3, FGFR2 (Homo sapiens, UniProt P21802).
T3 construct: made in house; host or cells: E. coli derived from BL21, infected with T7 phage
Put plainly: Kinase binding assay (kinase-tagged T7 phage, affinity beads, qPCR readout), FGFR2. The conditions noted are these: FGFR binding data. The procedure, abridged: as §1

For assay [4], the system named is SNU-16 (Gastric Carcinoma), FGFR2 amplification. Put plainly: Cancer cell viability assay (Cell Titer-Glo), SNU-16. The class given is cell-based. The conditions noted are these: Homo sapiens, SNU-16 cells, 72 hours, read-out: SNU16 FGFR2 (IC50 nM). An outline of the steps: as §2
The target in another assay is T4, FGFR3 (V555M) (Homo sapiens, UniProt P22607, V555M).
T4 construct: made in house; host or cells: E. coli derived from BL21, infected with T7 phage
Put plainly: Kinase binding assay (kinase-tagged T7 phage, affinity beads, qPCR readout), FGFR3 (V555M). The settings on record: FGFR binding data. An outline of the steps: as §1

T2 sequence (P11362 22-822): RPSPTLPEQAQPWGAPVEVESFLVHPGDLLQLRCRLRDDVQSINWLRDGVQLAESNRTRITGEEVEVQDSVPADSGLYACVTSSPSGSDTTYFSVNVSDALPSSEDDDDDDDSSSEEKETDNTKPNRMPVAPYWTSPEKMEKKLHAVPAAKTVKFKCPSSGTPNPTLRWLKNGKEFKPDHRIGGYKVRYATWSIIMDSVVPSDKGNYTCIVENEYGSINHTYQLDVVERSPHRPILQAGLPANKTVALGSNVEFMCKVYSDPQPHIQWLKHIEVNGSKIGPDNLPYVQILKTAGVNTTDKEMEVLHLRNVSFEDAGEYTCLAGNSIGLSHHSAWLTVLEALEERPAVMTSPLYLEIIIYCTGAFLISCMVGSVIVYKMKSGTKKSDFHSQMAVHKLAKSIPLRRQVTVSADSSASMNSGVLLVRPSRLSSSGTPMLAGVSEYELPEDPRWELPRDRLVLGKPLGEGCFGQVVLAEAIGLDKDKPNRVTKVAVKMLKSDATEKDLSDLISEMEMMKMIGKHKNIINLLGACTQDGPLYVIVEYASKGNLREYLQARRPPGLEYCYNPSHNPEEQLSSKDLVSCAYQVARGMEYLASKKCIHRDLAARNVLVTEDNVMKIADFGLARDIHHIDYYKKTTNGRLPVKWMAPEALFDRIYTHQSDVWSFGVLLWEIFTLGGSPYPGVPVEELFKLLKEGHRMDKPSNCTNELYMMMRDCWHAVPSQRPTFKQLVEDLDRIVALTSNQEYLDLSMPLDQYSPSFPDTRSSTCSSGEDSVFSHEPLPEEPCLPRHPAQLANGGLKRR
T1 sequence (P22607 23-806): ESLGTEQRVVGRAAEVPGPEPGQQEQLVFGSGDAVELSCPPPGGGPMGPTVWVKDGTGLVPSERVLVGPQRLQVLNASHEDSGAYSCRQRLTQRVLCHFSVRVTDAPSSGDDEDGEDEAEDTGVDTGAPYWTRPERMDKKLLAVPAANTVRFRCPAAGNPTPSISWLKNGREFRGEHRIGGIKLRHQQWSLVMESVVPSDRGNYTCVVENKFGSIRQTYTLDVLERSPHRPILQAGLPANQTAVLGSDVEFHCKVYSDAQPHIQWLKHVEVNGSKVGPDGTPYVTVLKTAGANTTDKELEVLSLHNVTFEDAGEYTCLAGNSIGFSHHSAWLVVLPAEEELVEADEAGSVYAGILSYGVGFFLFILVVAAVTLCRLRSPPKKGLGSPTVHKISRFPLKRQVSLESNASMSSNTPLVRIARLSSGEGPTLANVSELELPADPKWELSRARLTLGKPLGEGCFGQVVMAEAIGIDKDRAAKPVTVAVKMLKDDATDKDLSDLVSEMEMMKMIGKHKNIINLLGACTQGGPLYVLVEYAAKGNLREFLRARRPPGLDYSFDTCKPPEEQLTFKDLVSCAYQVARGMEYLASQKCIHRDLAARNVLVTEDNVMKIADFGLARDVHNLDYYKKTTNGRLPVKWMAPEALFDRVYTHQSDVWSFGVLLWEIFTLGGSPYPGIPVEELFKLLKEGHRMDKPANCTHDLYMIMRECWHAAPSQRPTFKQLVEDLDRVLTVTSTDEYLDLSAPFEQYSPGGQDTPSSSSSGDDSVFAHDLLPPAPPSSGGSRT
T4 sequence (P22607 23-806 V555M): as the sequence (P22607 23-806) above, with V533M counted along it
T3 sequence (P21802 22-821): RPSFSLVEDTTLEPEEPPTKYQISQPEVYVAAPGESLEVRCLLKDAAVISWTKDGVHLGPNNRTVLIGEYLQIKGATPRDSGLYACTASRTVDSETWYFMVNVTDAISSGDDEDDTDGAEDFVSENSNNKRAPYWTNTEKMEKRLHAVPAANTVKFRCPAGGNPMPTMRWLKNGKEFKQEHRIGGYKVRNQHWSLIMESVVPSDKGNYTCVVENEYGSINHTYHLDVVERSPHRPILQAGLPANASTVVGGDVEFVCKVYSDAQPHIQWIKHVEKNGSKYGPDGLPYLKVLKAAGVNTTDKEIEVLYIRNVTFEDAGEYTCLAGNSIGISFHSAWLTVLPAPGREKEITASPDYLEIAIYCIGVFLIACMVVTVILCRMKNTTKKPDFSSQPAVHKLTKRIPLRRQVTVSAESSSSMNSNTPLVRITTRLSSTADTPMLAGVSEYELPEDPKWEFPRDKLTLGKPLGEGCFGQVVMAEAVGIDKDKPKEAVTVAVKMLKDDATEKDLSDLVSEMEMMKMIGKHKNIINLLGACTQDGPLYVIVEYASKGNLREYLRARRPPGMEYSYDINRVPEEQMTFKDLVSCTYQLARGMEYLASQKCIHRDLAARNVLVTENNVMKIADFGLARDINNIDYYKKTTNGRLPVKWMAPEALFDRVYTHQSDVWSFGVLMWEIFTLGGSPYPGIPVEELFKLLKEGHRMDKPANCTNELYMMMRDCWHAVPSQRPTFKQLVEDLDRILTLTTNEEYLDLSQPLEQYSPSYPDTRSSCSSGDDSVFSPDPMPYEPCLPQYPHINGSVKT

In the case of `C=CC(=O)Nc1ccc2c(c1)c(C)cn2-c1nc(Nc2ccc(N3CCOCC3)cc2)ncc1C` [Example 44, N-[3-methyl-1-[5-methyl-2-(4-morpholinoanilino)pyrimidin-4-yl]indol-5-yl]prop-2-enamide], the Kd on FGFR3, on FGFR1, on FGFR2 and at FGFR3 (V555M) was 0.1 to 100 nM throughout. Further, the IC50 in assay [1], in assay [2], in assay [3] and in assay [4] was 0.1 to 100 nM throughout.

As to `C=CC(=O)Nc1ccc2c(c1)c(C)cn2-c1nc(Nc2ccnn2C)ncc1C` [Example 49, N-[3-methyl-1-[5-methyl-2-[(2-methylpyrazol-3-yl)amino]-pyrimidin-4-yl]indol-5-yl]prop-2-enamide], the Kd at FGFR3 was 0.1 to 100 nM; on FGFR1, 100 to 250 nM; on FGFR2, 0.1 to 100 nM; on FGFR3 (V555M) it was 0.1 to 100 nM. The IC50 in assay [1], in assay [2], in assay [3] and in assay [4] was 0.1 to 100 nM throughout.

Consider `C=CC(=O)Nc1ccc2c(c1)c(C)cn2-c1ccnc(Nc2ccc(N3CCOCC3)cc2)n1` [Example 54, N-[3-Methyl-1-[2-(4-morpholinoanilino)pyrimidin-4-yl]indol-5-yl]prop-2-enamide], for which the Kd at FGFR3, on FGFR1, on FGFR2 and on FGFR3 (V555M) was 0.1 to 100 nM throughout. For the same molecule, the IC50 in assay [1], in assay [2], in assay [3] and in assay [4] was 0.1 to 100 nM throughout.

In the case of `C=CC(=O)Nc1ccc2c(c1)c(C)cn2-c1nc(Nc2cnn(C)c2)ncc1F` [Example 61, N-[1-[5-fluoro-2-[(1-methylpyrazol-4-yl)amino]pyrimidin-4-yl]-3-methyl-indol-5-yl]prop-2-enamide], the Kd at FGFR3, on FGFR1, on FGFR2 and at FGFR3 (V555M) was 0.1 to 100 nM each time. For the same molecule, the IC50 in assay [1], in assay [2], in assay [3] and in assay [4] was 0.1 to 100 nM in each case.

In the case of `C=CC(=O)Nc1ccc2c(c1)c(C)cn2-c1nc(Nc2cc(C)nn2C)ncc1C` [Example 64, N-[1-[2-[(2,5-dimethylpyrazol-3-yl)amino]-5-methyl-pyrimidin-4-yl]-3-methyl-indol-5-yl]prop-2-enamide], the Kd at FGFR3, at FGFR1, at FGFR2 and on FGFR3 (V555M) was 0.1 to 100 nM throughout. In addition, the IC50 in assay [1], in assay [2], in assay [3] and in assay [4] was 0.1 to 100 nM in each case.

In the case of `C=CC(=O)Nc1cnc2c(c1)c(C)cn2-c1nc(Nc2ccnn2C)ncc1C` [Example 85, N-[3-methyl-1-[5-methyl-2-[(2-methylpyrazol-3-yl)amino]pyrimidin-4-yl]pyrrolo[2,3-b]pyridin-5-yl]prop-2-enamide], the Kd on FGFR3, at FGFR1, at FGFR2 and on FGFR3 (V555M) was 0.1 to 100 nM in each case. Besides, the IC50 in assay [1], in assay [2] and in assay [3] was 0.1 to 100 nM throughout.

Turning to `C=CC(=O)Nc1ccc2c(-c3ccnc(Nc4cnn(CCO)c4)n3)cn(C)c2c1` [Example 106, N-[3-[2-[[1-(2-hydroxyethyl)pyrazol-4-yl]amino]pyrimidin-4-yl]-1-methyl-indol-6-yl]prop-2-enamide], the Kd on FGFR3, on FGFR1, at FGFR2 and at FGFR3 (V555M) was 0.1 to 100 nM each time. Moreover, the half-maximal inhibitory concentration (IC50) in assay [1], in assay [2], in assay [3] and in assay [4] was 0.1 to 100 nM each time.

In general, Kd refers to the equilibrium constant for the complex coming apart. A word on the IC50: it is the midpoint of a concentration-inhibition curve.
